Columns and labels:
[1] = system: barnyardgrass; experiment: Test B flooded paddy test; assay type: in vivo, Echinochloa crus-galli; details: 1000 g ai/ha, scale 0 to 100 (0 no effect, 100 complete control)
Outline: (§1)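 Read-out: visual comparison with controls, scored 0 to 100, where 100 means complete control and 0 no effect. Formulated chemicals were applied postemergence to plants 2–18 cm tall (1- to 4-leaf), or to flooded-paddy plants at the 2-leaf stage, then held 13 to 15 days under glass.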

[2] = system: ducksalad; experiment: Test B flooded paddy test; assay type: in vivo, Heteranthera limosa; details: 1000 g ai/ha, scale 0 to 100 (0 no effect, 100 complete control)
Outline: as §1

[3] = system: cocklebur; experiment: Test B pre-/postemergence herbicide test; assay type: in vivo, Xanthium strumarium
Outline: (§2)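 Pre: seeds sown, then sprayed. Post: 1–4-leaf plants (2–18 cm) sprayed at the same time. Paddy: flooded, treated at 2-leaf stage. Formulation: non-phytotoxic solvent with surfactant. Greenhouse 13–15 days; visual 0–100 score relative to controls.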

[4] = system: barnyardgrass; experiment: Test B pre-/postemergence herbicide test; assay type: in vivo, Echinochloa crus-galli
Outline: as §2

[5] = system: wheat; experiment: Test B postemergence herbicide test; assay type: in vivo, Triticum aestivum; set-up: key to Wheat plant response rating: 0 = no effect, 100 = complete control
Outline: (§3)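 Postemergence plants were sprayed with formulated test chemicals at 2 to 18 cm height (1- to 4-leaf stage); paddy species were grown to the 2-leaf stage. After 13 to 15 days in a greenhouse, injury was rated visually against untreated controls on a 0–100 scale (0 = no effect, 100 = complete control).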

[6] = system: lambsquarters; experiment: Test B pre-/postemergence herbicide test; assay type: in vivo, Chenopodium album
Outline: (§4)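 Visual rating, 0 (no effect) to 100 (complete control), versus untreated controls after 13–15 d in greenhouse. Pre- and postemergence applications (postemergence plants 2–18 cm, 1–4 leaves); flooded paddy arm at 2-leaf stage. Compounds in non-phytotoxic solvent plus surfactant.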

[7] = system: velvetleaf; experiment: Test B pre-/postemergence herbicide test; assay type: in vivo, Abutilon theophrasti
Outline: as §4

[8] = system: large crabgrass; experiment: Test B pre-/postemergence herbicide test; assay type: in vivo, Digitaria sanguinalis
Outline: as §4

[9] = system: morningglory; experiment: Test B pre-/postemergence herbicide test; assay type: in vivo, Ipomoea coccinea
Outline: as §2

[10] = system: corn; experiment: Test B pre-/postemergence herbicide test; assay type: in vivo, Zea mays
Outline: as §4

[11] = system: Surinam grass; experiment: Test B pre-/postemergence herbicide test; assay type: in vivo, Urochloa decumbens
Outline: as §4

[12] = system: giant foxtail; experiment: Test B pre-/postemergence herbicide test; assay type: in vivo, Setaria faberi
Outline: as §4

[13] = system: rice; experiment: Test B flooded paddy test; assay type: in vivo, Oryza sativa; details: 1000 g ai/ha, scale 0 to 100 (0 no effect, 100 complete control)
Outline: as §1

[14] = system: pigweed; experiment: Test B pre-/postemergence herbicide test; assay type: in vivo, Amaranthus retroflexus
Outline: as §4

[15] = system: wild oat; experiment: Test B postemergence herbicide test; assay type: in vivo, Avena fatua
Outline: as §3

[16] = 125 g ai/ha; 0 is no effect, 100 is complete control; preemergence
[17] = 125 g ai/ha; visual rating, scale 0 (no effect) to 100 (complete control); postemergence
[18] = 500 g ai/ha; visual rating, 0 = no effect, 100 = complete control; preemergence
[19] = postemergence, 500 g ai/ha; scale 0 to 100, 0 is no effect, 100 is complete control
[20] = 500 g ai/ha; visual rating 0-100, 0 no effect, 100 complete control; preemergence
[21] = postemergence, 125 g ai/ha; visual rating, scale 0 (no effect) to 100 (complete control)
[22] = postemergence, 500 g ai/ha; visual rating, scale 0 (no effect) to 100 (complete control)
[23] = preemergence, 125 g ai/ha; 0 to 100 scale, 0 is no effect, 100 is complete control

CCn1nc(C(C)(C)C)cc1C(=O)Nc1cc(OC(F)(F)F)ccc1F [Compound 338]
Barnyardgrass plant response rating [1]: 40
Ducksalad plant response rating [2]: 60
Plant response rating (0 to 100 scale), Cocklebur [3, 16]: 0
Cocklebur plant response rating [3, 17]: 10
Plant response rating, Cocklebur [3, 18]: 0
Cocklebur plant response rating [3, 19]: 10
Plant response rating (0 to 100 scale), Barnyardgrass [4, 16]: 20
Barnyardgrass plant response rating [4, 17]: 20
Plant response rating, Barnyardgrass [4, 18]: 80
Barnyardgrass plant response rating [4, 19]: 40
Wheat plant response rating [5, 17]: 0
Wheat plant response rating [5, 19]: 10
Plant response rating (0 to 100 scale), Lambsquarters [6, 16]: 60
Lambsquarters plant response rating [6, 17]: 10
Plant response rating, Lambsquarters [6, 18]: 100
Lambsquarters plant response rating [6, 19]: 50
Velvetleaf plant response rating [7, 17]: 20
Velvetleaf plant response rating [7, 19]: 50
Plant response rating (0 to 100 scale), Crabgrass, Large [8, 16]: 80
Crabgrass, Large plant response rating [8, 17]: 20
Plant response rating, Crabgrass, Large [8, 18]: 100
Crabgrass, Large plant response rating [8, 19]: 60
Plant response rating (0 to 100 scale), Morningglory [9, 16]: 0
Morningglory plant response rating [9, 17]: 60
Plant response rating, Morningglory [9, 18]: 10
Morningglory plant response rating [9, 19]: 100
Plant response rating (0 to 100 scale), Corn [10, 16]: 10
Corn plant response rating [10, 17]: 10
Plant response rating, Corn [10, 18]: 10
Corn plant response rating [10, 19]: 20
Plant response rating (0 to 100 scale), Surinam Grass [11, 16]: 20
Surinam Grass plant response rating [11, 17]: 20
Plant response rating, Surinam Grass [11, 18]: 60
Surinam Grass plant response rating [11, 19]: 40
Plant response rating (0 to 100 scale), Foxtail, Giant [12, 16]: 30
Foxtail, Giant plant response rating [12, 17]: 20
Plant response rating, Foxtail, Giant [12, 18]: 100
Foxtail, Giant plant response rating [12, 19]: 30
Rice plant response rating [13]: 30
Plant response rating (0 to 100 scale), Pigweed [14, 16]: 70
Pigweed plant response rating [14, 17]: 60
Plant response rating, Pigweed [14, 18]: 100
Pigweed plant response rating [14, 19]: 80
Oat, Wild plant response rating [15, 17]: 0
Oat, Wild plant response rating [15, 19]: 40

CCn1nc(C(C)(C)C)cc1C(=O)Nc1cccc(OCCCF)c1 [Compound 138]
Barnyardgrass plant response rating ([1]; visual rating, 13 to 15 days): 10
Ducksalad plant response rating ([2]; visual rating, 13 to 15 days): 80
Plant response rating, Cocklebur [3, 20]: 10
Cocklebur plant response rating [3, 21]: 40
Cocklebur plant response rating [3, 22]: 90
Plant response rating, Cocklebur [3, 23]: 0
Plant response rating, Barnyardgrass [4, 20]: 70
Barnyardgrass plant response rating [4, 21]: 10
Barnyardgrass plant response rating [4, 22]: 20
Plant response rating, Barnyardgrass [4, 23]: 10
Wheat plant response rating [5, 21]: 20
Wheat plant response rating [5, 22]: 30
Plant response rating, Lambsquarters [6, 20]: 100
Lambsquarters plant response rating [6, 21]: 80
Lambsquarters plant response rating [6, 22]: 90
Plant response rating, Lambsquarters [6, 23]: 0
Plant response rating, Velvetleaf [7, 20]: 40
Velvetleaf plant response rating [7, 21]: 20
Velvetleaf plant response rating [7, 22]: 50
Plant response rating, Velvetleaf [7, 23]: 0
Plant response rating, Crabgrass, Large [8, 20]: 100
Crabgrass, Large plant response rating [8, 21]: 20
Crabgrass, Large plant response rating [8, 22]: 20
Plant response rating, Crabgrass, Large [8, 23]: 40
Plant response rating, Morningglory [9, 20]: 20
Morningglory plant response rating [9, 21]: 20
Morningglory plant response rating [9, 22]: 60
Plant response rating, Morningglory [9, 23]: 0
Plant response rating, Corn [10, 20]: 10
Corn plant response rating [10, 21]: 20
Corn plant response rating [10, 22]: 30
Plant response rating, Corn [10, 23]: 0
Plant response rating, Surinam Grass [11, 20]: 30
Surinam Grass plant response rating [11, 21]: 20
Surinam Grass plant response rating [11, 22]: 30
Plant response rating, Surinam Grass [11, 23]: 0
Plant response rating, Foxtail, Giant [12, 20]: 70
Foxtail, Giant plant response rating [12, 21]: 20
Foxtail, Giant plant response rating [12, 22]: 30
Plant response rating, Foxtail, Giant [12, 23]: 30
Rice plant response rating ([13]; visual rating, 13 to 15 days): 50
Plant response rating, Pigweed [14, 20]: 100
Pigweed plant response rating [14, 21]: 60
Pigweed plant response rating [14, 22]: 90
Plant response rating, Pigweed [14, 23]: 60
Oat, Wild plant response rating [15, 21]: 20
Oat, Wild plant response rating [15, 22]: 30

C=CCNC(=O)c1cccc(NC(=O)c2cc(C(C)(C)C)nn2C)n1 [Compound 318]
Barnyardgrass plant response rating [1]: 70
Ducksalad plant response rating [2]: 70
Plant response rating (0 to 100 scale), Cocklebur [3, 16]: 0
Cocklebur plant response rating [3, 17]: 10
Plant response rating, Cocklebur [3, 18]: 0
Cocklebur plant response rating [3, 19]: 80
Plant response rating (0 to 100 scale), Barnyardgrass [4, 16]: 40
Barnyardgrass plant response rating [4, 17]: 40
Plant response rating, Barnyardgrass [4, 18]: 90
Barnyardgrass plant response rating [4, 19]: 70
Wheat plant response rating [5, 17]: 0
Wheat plant response rating [5, 19]: 10
Plant response rating (0 to 100 scale), Lambsquarters [6, 16]: 90
Lambsquarters plant response rating [6, 17]: 80
Plant response rating, Lambsquarters [6, 18]: 100
Lambsquarters plant response rating [6, 19]: 80
Plant response rating (0 to 100 scale), Velvetleaf [7, 16]: 20
Velvetleaf plant response rating [7, 17]: 40
Velvetleaf plant response rating [7, 19]: 80
Plant response rating (0 to 100 scale), Crabgrass, Large [8, 16]: 10
Crabgrass, Large plant response rating [8, 17]: 10
Plant response rating, Crabgrass, Large [8, 18]: 90
Crabgrass, Large plant response rating [8, 19]: 60
Plant response rating (0 to 100 scale), Morningglory [9, 16]: 0
Morningglory plant response rating [9, 17]: 0
Plant response rating, Morningglory [9, 18]: 30
Morningglory plant response rating [9, 19]: 80
Plant response rating (0 to 100 scale), Corn [10, 16]: 0
Corn plant response rating [10, 17]: 20
Plant response rating, Corn [10, 18]: 0
Corn plant response rating [10, 19]: 20
Plant response rating (0 to 100 scale), Surinam Grass [11, 16]: 0
Surinam Grass plant response rating [11, 17]: 10
Plant response rating, Surinam Grass [11, 18]: 40
Surinam Grass plant response rating [11, 19]: 20
Plant response rating (0 to 100 scale), Foxtail, Giant [12, 16]: 0
Foxtail, Giant plant response rating [12, 17]: 10
Plant response rating, Foxtail, Giant [12, 18]: 80
Foxtail, Giant plant response rating [12, 19]: 10
Rice plant response rating [13]: 40
Plant response rating (0 to 100 scale), Pigweed [14, 16]: 90
Pigweed plant response rating [14, 17]: 70
Plant response rating, Pigweed [14, 18]: 100
Pigweed plant response rating [14, 19]: 100
Oat, Wild plant response rating [15, 17]: 0
Oat, Wild plant response rating [15, 19]: 30

Source: patent publication US20060069132A1, “Azolecarboxamide herbicides” (priority 2004, published 2006)
